Target: T1, hROMK (hKir1.1) (Homo sapiens, UniProt P48048)
T1 construct: expressed in transfected cells
T1 sequence (P48048 1-391): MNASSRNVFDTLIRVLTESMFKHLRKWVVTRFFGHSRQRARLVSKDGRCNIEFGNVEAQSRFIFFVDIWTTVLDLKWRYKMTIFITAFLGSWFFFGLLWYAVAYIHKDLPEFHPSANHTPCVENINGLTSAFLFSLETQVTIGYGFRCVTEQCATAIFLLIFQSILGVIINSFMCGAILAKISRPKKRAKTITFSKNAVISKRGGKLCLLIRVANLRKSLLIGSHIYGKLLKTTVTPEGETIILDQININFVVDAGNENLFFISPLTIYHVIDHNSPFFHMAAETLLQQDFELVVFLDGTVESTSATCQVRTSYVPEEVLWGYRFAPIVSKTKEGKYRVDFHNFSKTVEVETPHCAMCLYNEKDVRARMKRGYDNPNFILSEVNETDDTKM
Experiment: Thallium Flux Assay (ROMK channel functional thallium flux, FLIPR-Tetra)
Format: cell-based
Conditions: HEK293 cells stably expressing hROMK (hKir1.1); 30 min compound incubation
Summary of the method: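 HEK293 cells stably expressing hKir1.1, loaded with FluxOR dye for 90 min, then preincubated with compound for 30 min at ambient temperature with 0.3 mM ouabain and probenecid. Stimulated with 3 mM thallium/0.3 mM potassium (final); fluorescence read ~10 min. Normalized to 3 μM reference ROMK inhibitor; IC50 from inhibition of flux.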

Row | IC50 [nM] | SMILES
1 | 40 | Cc1nc(-n2cnnn2)ccc1[C@@H](O)CN1CCC2(CC1)CCN(C1=C(C3CC3)C(=O)OC1)C2=O [Example 60, 2-(4-cyclopropyl-5-oxo-2,5-dihydrofuran-3-yl)-8-{(2R)-2-hydroxy-2-[2-methyl-6-(1H-tetrazol-1-yl)pyridin-3-yl]ethyl}-1-oxo-2-aza-8-azoniaspiro[4.5]decane]
2 | 70 | CC1=C(N2CCC3(CCN(C[C@H](O)c4cccc(-n5cnnn5)c4)CC3)C2=O)COC1=O [Example 61, 8-{(2R)-2-hydroxy-2-[3-(1H-tetrazol-1-yl)phenyl]ethyl}-2-(4-methyl-5-oxo-2,5-dihydrofuran-3-yl)-1-oxo-2-aza-8-azoniaspiro[4.5]decane]
3 | 40 | CC1=C(N2CCC3(CCN(C[C@@H](O)c4cccc(-n5cnnn5)c4)CC3)C2=O)COC1=O [Example 62, 8-{(2S)-2-hydroxy-2-[3-(1H-tetrazol-1-yl)phenyl]ethyl}-2-(4-methyl-5-oxo-2,5-dihydrofuran-3-yl)-1-oxo-2-aza-8-azoniaspiro[4.5]decane]
4 | 40 | CC1=C(N2CCC3(CCN(C[C@H](O)c4nnc(-n5cnnn5)c(C)c4C)CC3)C2=O)COC1=O [Example 69, 8-{(2S)-2-[4,5-dimethyl-6-(1H-tetrazol-1-yl)pyridazin-3-yl]-2-hydroxyethyl}-2-(4-methyl-5-oxo-2,5-dihydrofuran-3-yl)-1-oxo-2-aza-8-azoniaspiro[4.5]decane]
5 | 30 | CC1=C(N2CCC3(CCN(C[C@@H](O)c4nnc(-n5cnnn5)c(C)c4C)CC3)C2=O)COC1=O [Example 70, 8-{(2R)-2-[4,5-dimethyl-6-(1H-tetrazol-1-yl)pyridazin-3-yl]-2-hydroxyethyl}-2-(4-methyl-5-oxo-2,5-dihydrofuran-3-yl)-1-oxo-2-aza-8-azoniaspiro[4.5]decane]
6 | 70 | CC1=C(N2CCC3(CCN(C[C@@H](O)c4cc(-n5cnnn5)ccn4)CC3)C2=O)COC1=O [Example 71, 8-{(2R)-2-hydroxy-2-[4-(1H-tetrazol-1-yl)pyridin-2-yl]ethyl}-2-(4-methyl-5-oxo-2,5-dihydrofuran-3-yl)-1-oxo-2-aza-8-azoniaspiro[4.5]decane]
7 | 40 | CC1=C(N2CCC3(CCN(C[C@H](O)c4cc(-n5cnnn5)ccn4)CC3)C2=O)COC1=O [Example 72, 8-{(2S)-2-hydroxy-2-[4-(1H-tetrazol-1-yl)pyridin-2-yl]ethyl}-2-(4-methyl-5-oxo-2,5-dihydrofuran-3-yl)-1-oxo-2-aza-8-azoniaspiro[4.5]decane]
8 | 170 | CC1=C(N2CCC3(CCN(C[C@H](O)c4cccc(-n5cnnn5)n4)CC3)C2=O)COC1=O [Example 73, 8-{(2S)-2-hydroxy-2-[6-(1H-tetrazol-1-yl)pyridin-2-yl]ethyl}-2-(4-methyl-5-oxo-2,5-dihydrofuran-3-yl)-1-oxo-2-aza-8-azoniaspiro[4.5]decane]
9 | 90 | CC1=C(N2CCC3(CCN(C[C@@H](O)c4cccc(-n5cnnn5)n4)CC3)C2=O)COC1=O [Example 74, 8-{(2R)-2-hydroxy-2-[6-(1H-tetrazol-1-yl)pyridin-2-yl]ethyl}-2-(4-methyl-5-oxo-2,5-dihydrofuran-3-yl)-1-oxo-2-aza-8-azoniaspiro[4.5]decane]
10 | 440 | CC1=C(N2CCC3(CCN(C[C@H](O)c4cncc(-n5cnnn5)n4)CC3)C2=O)COC1=O [Example 75, 8-{(2S)-2-hydroxy-2-[6-(1H-tetrazol-1-yl)pyrazin-2-yl]ethyl}-2-(4-methyl-5-oxo-2,5-dihydrofuran-3-yl)-1-oxo-2-aza-8-azoniaspiro[4.5]decane]
11 | 20 | CC1=C(N2CCC3(CCN(C[C@H](O)c4c(F)cc(-n5cnnn5)cc4F)CC3)C2=O)COC1=O [Example 76, 8-{(2R)-2-[2,6-difluoro-4-(1H-tetrazol-1-yl)phenyl]-2-hydroxyethyl}-2-(4-methyl-5-oxo-2,5-dihydrofuran-3-yl)-1-oxo-2-aza-8-azoniaspiro[4.5]decane]
12 | 10 | C[C@H]1CC2(CCN(C[C@H](O)c3cnc(-n4cnnn4)cn3)CC2)C(=O)N1C1=CC(=O)OC1 [Example 77, (3S)-8-{(2S)-2-hydroxy-2-[5-(1H-tetrazol-1-yl)pyrazin-2-yl]ethyl}-3-methyl-1-oxo-2-(5-oxo-2,5-dihydrofuran-3-yl)-2-aza-8-azoniaspiro[4.5]decane]
13 | 10 | C[C@H]1CC2(CCN(C[C@@H](O)c3cnc(-n4cnnn4)cn3)CC2)C(=O)N1C1=CC(=O)OC1 [Example 78, (3S)-8-{(2R)-2-hydroxy-2-[5-(1H-tetrazol-1-yl)pyrazin-2-yl]ethyl}-3-methyl-1-oxo-2-(5-oxo-2,5-dihydrofuran-3-yl)-2-aza-8-azoniaspiro[4.5]decane]
14 | 100 | C[C@@H]1CC2(CCN(C[C@H](O)c3cnc(-n4cnnn4)cn3)CC2)C(=O)N1C1=CC(=O)OC1 [Example 79, (3R)-8-{(2S)-2-hydroxy-2-[5-(1H-tetrazol-1-yl)pyrazin-2-yl]ethyl}-3-methyl-1-oxo-2-(5-oxo-2,5-dihydrofuran-3-yl)-2-aza-8-azoniaspiro[4.5]decane]
15 | 130 | C[C@@H]1CC2(CCN(C[C@@H](O)c3cnc(-n4cnnn4)cn3)CC2)C(=O)N1C1=CC(=O)OC1 [Example 80, (3R)-8-{(2R)-2-hydroxy-2-[5-(1H-tetrazol-1-yl)pyrazin-2-yl]ethyl}-3-methyl-1-oxo-2-(5-oxo-2,5-dihydrofuran-3-yl)-2-aza-8-azoniaspiro[4.5]decane]
16 | 10 | C[C@H]1CC2(CCN(C[C@H](O)c3ccc(-n4cnnn4)nc3)CC2)C(=O)N1C1=CC(=O)OC1 [Example 81, (3S)-8-{(2R)-2-hydroxy-2-[6-(1H-tetrazol-1-yl)pyridin-3-yl]ethyl}-3-methyl-1-oxo-2-(5-oxo-2,5-dihydrofuran-3-yl)-2-aza-8-azoniaspiro[4.5]decane]
17 | 10 | C[C@H]1CC2(CCN(C[C@@H](O)c3ccc(-n4cnnn4)nc3)CC2)C(=O)N1C1=CC(=O)OC1 [Example 82, (3S)-8-{(2S)-2-hydroxy-2-[6-(1H-tetrazol-1-yl)pyridin-3-yl]ethyl}-3-methyl-1-oxo-2-(5-oxo-2,5-dihydrofuran-3-yl)-2-aza-8-azoniaspiro[4.5]decane]
18 | 10 | C[C@@H]1CC2(CCN(C[C@H](O)c3ccc(-n4cnnn4)nc3)CC2)C(=O)N1C1=CC(=O)OC1 [Example 83, (3R)-8-{(2R)-2-hydroxy-2-[6-(1H-tetrazol-1-yl)pyridin-3-yl]ethyl}-3-methyl-1-oxo-2-(5-oxo-2,5-dihydrofuran-3-yl)-2-aza-8-azoniaspiro[4.5]decane]

Row | SMILES | IC50 [nM]
19 | CC1=C(N2CCC3(CC4CCC(C3)N4C[C@@H](O)c3cc(C)c(-n4cnnn4)nn3)C2=O)COC1=O (stereo partly drawn) [Example 54, (1R,5R)-8-{(2R)-2-hydroxy-2-[5-methyl-6-(1H-tetrazol-1-yl)pyridazin-3-yl]ethyl}-1′-(4-methyl-5-oxo-2,5-dihydrofuran-3-yl)-2′-oxospiro[8-azoniabicyclo[3.2.1]octane-3,3′-pyrrolidine]] | 20
20 | CC1=C(N2CCC3(CC4CCC(C3)N4C[C@H](O)c3cc(C)c(-n4cnnn4)nn3)C2=O)COC1=O (stereo partly drawn) [Example 55, (1R,5R)-8-{(2S)-2-hydroxy-2-[5-methyl-6-(1H-tetrazol-1-yl)pyridazin-3-yl]ethyl}-1′-(4-methyl-5-oxo-2,5-dihydrofuran-3-yl)-2′-oxospiro[8-azoniabicyclo[3.2.1]octane-3,3′-pyrrolidine]] | 50

Reference: US9765074B2, “Inhibitors of the renal outer medullary potassium channel” (Merck Sharp & Dohme Corp., priority 2013, dated 2017)
